Reference: patent US4512924A, “Pyridazo[1,2-a][1,2]diazepines” (Hoffmann-La Roche Inc., priority 1982, dated 1985)

Biological target: T1, angiotensin converting enzyme (Oryctolagus cuniculus, UniProt P12822)
T1 sequence (P12822 34-1310): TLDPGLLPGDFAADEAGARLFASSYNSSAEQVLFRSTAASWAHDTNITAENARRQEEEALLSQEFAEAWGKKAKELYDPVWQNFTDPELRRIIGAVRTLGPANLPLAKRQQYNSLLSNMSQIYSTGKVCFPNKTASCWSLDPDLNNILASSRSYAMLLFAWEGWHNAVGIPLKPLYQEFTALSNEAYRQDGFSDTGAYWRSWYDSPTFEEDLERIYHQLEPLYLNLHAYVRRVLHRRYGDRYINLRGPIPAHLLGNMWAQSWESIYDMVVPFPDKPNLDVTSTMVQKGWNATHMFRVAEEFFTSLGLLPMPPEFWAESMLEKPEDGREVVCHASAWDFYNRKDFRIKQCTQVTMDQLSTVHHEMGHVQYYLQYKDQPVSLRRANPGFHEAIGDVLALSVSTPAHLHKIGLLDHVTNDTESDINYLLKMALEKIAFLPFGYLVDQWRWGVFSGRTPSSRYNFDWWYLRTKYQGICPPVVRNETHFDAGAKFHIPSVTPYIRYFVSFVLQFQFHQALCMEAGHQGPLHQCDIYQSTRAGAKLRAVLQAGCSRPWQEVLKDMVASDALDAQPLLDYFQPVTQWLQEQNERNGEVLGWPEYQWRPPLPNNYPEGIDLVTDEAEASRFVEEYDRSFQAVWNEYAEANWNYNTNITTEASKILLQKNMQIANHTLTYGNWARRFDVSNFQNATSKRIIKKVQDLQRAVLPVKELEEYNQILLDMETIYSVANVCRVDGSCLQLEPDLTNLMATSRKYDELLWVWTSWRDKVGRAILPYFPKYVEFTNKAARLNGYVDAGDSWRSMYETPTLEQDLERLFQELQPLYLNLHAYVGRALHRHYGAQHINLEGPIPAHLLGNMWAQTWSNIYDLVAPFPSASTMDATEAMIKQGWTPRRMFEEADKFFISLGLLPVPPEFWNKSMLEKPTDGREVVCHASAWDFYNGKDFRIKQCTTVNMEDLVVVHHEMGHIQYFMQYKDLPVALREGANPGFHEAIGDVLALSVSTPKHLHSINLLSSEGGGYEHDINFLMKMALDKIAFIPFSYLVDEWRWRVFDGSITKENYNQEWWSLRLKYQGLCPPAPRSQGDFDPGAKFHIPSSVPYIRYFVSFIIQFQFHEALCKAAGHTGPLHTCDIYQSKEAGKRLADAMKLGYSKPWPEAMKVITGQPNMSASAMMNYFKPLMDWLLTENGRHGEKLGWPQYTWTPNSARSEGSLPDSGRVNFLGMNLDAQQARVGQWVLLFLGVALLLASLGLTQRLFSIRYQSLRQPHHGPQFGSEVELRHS
Assay: in vitro inhibition of angiotensin converting enzyme (cleavage of hippuryl-histidyl-leucine)
Type: biochemical
Conditions: hippuryl-histidyl-leucine 2 mM, potassium phosphate buffer pH 8.3, 100 mM, NaCl 300 mM, 24 minutes at 37° C., read-out: IC50 (concentration of test substance which reduces by 50% the cleavage of hippuryl-histidyl-leucine by angiotensin converting enzyme)
Experimental: The activity of the present compounds in inhibiting angiotensin converting enzyme in vitro can be determined by the following test.
The method used is based on the method of Cushman and Cheung (Biochem. Pharmacol., 20. 1637-1648) incorporating the modifications introduced by Hayakari et al (Anal. Biochem., 84. 361-369). The substrate (hippuryl-histidyl-leucine, 2 mM) is incubated with angiotensin converting enzyme in the presence or absence of various concentrations of test substance in potassium phosphate buffer (pH 8.3; 100 mM) containing sodium chloride (300 mM) for 24 minutes at 37° C. (total value 500 μl). (If the test substance is an ester, it is appropriate to cleave it by means of hog liver esterase before carrying out the test). The reaction is terminated by the addition of 3 ml of potassium phosphate buffer (pH 8.3; 200 mM) at 0° C. 2,4,6-Trichloro-s-triazine (3%) in 1.5 ml of dioxane is added and the mixture is agitated until the yellow chromophore has developed fully. The samples are then centrifuged to remove any precipitate which has formed. The yellow chromophore formed by the reaction of the 2,4,6-trichloro-s-triazine with free hippuric acid is measured spectrophotometrically at 382 nm. IC50 values are defined as the concentration of test substance which reduces by 50% the cleavage of hippuryl-histidyl-leucine by angiotensin converting enzyme under the aforementioned conditions.
The results obtained in the foregoing test using representative compounds of formula I as the test substance are compiled in the following Table.

Going from `O=C(O)C(CCCc1ccccc1)N[C@H]1CCC(=O)N2CCC[C@@H](C(=O)O)N2C1=O` (mixture of isomers) [Compound D, 9(S)-[1(R and S)-carboxy-4-phenylbutylamino]-octahydro-6,10-dioxo-6H-pyridazo[1,2-a][1,2]diazepine-1(S)-carboxylic acid] to `O=C(O)C(CCc1ccccc1)N[C@H]1CCC(=O)N2CCC[C@@H](C(=O)O)N2C1=O` (single isomer, unassigned) [Compound A], the IC50 falls from 0.011 µM to 0.0042 µM (2.6-fold).

`O=C(O)C(Cc1ccccc1)N[C@H]1CCC(=O)N2CCC[C@@H](C(=O)O)N2C1=O` (mixture of isomers) [Compound E, 9(S)-[1(R and S)-carboxy-2-phenylethylamino]-octahydro-6,10-dioxo-6H-pyridazo[1,2-a][1,2]diazepine-1(S)-carboxylic acid] and `O=C(O)C(CCc1ccccc1)N[C@H]1CC(=O)N2CCCC(C(=O)O)N2C1=O` (single isomer, unassigned) [Compound B] are within 1.5-fold of each other in IC50: 0.026 µM for the first, 0.022 µM for the second.

Going from `CC(C)CCC(N[C@H]1CCC(=O)N2CCC[C@@H](C(=O)O)N2C1=O)C(=O)O` (mixture of isomers) [Compound F, 9(S)-[1(R and S)-carboxy-4-methylpentylamino]-octahydro-6,10-dioxo-6H-pyridazo[1,2-a][1,2]diazepine-1(S)-carboxylic acid] to `O=C(O)C(CCc1ccccc1)NC1CCN2CCCC(C(=O)O)N2C1=O` (racemic) [Compound C, 8-(1-Carboxy-3-phenylpropylamino)-octahydro-9-oxopyridazo[1,2-a]pyridazine-1-carboxylic acid], the IC50 rises from 0.012 µM to 0.055 µM (4.6-fold).
